This note sets out measurements from patent US9682961B2, “Quinazoline derivative” (CARNA BIOSCIENCES, INC., priority 2013, dated 2017).

The subject of the assay is Wnt/β-catenin signaling pathway. Put plainly: TCF-luciferase reporter gene assay (Wnt-3a stimulated HEK 293 cells). It counts as cell-based. The following applies: Homo sapiens, HEK293, Wnt-3a stimulation, read-out: Inhibitory activity against the Wnt/β-catenin signaling pathway. How it is done: Evaluation of inhibitory activity of the compounds of the present invention against the Wnt/β-catenin signaling pathway was performed by evaluating the inhibitory activity of the compounds of the present invention against the Wnt/β-catenin signaling pathway activated by the Wnt-3a ligand using a commercially available TCF-luciferase reporter gene assay system.
In a T75 flask, HEK 293 cells (ATCC No. CRL-1573) were added to a DMEM medium (manufactured by NACALAI TESQUE, INC., No. 08459-35) supplemented with 10% FBS (AusGeneX PTY LTD.) and 1% Penicillin/Streptomycin (NACALAI TESQUE, INC.). The cells in the flask were cultured in a 5% CO2 incubator.
The cultured HEK 293 cells were diluted with a DMEM medium supplemented with only 10% FBS so as to have a cell concentration of 2×10^5 cells/mL, and 100 μL each of the diluted cells were seeded into respective wells of 96-well plates (PerkinElmer Inc., ViewPlate No. 6005181), followed by culturing overnight in the 5% CO2 incubator. To an OptiMEM medium (Invitrogen® No. 11058), pGL4.49 [luc2p/TCF-LEF-RE/Hygro] plasmid DNA (Promega Corporation) and FuGENE® HD (Promega No. E2691) were added so as to have concentrations of 1 μg/mL and 3 μg/mL, respectively, to prepare a transfection solution as described in the protocol attached to the reagent. To the respective wells containing the HEK 293 cells cultured overnight, 100 μL each of the transfection solution was added gently, followed by culturing overnight in the 5% CO2 incubator to perform transfection.
To a DMEM medium, 0.5% charcoal/dextran treated Fetal Bovine Serum (Thermo Scientific No. SH30068.02) and LiCl (Sigma-Aldrich No. L9650) were added to prepare a LiCl-containing medium (final concentration of LiCl: 10 mM). The medium in the respective wells of the HEK 293 cells cultured overnight and transfected with a reporter gene was removed by decantation. The LiCl-containing medium (90 μL) was added gently to each well, followed by culturing overnight in the 5% CO2 incubator.
A DMSO stock solution of the compound to be tested was diluted 100-fold with a LiCl-containing medium so as to prepare a solution of the compound to be tested, which is 10 times the test concentration. Further, Recombinant Mouse Wnt-3a (R&D Systems, Inc. #1324-WN) was dissolved in a 0.1% BSA-PBA solution so as to have a concentration of 40 μg/mL, and the resultant solution was diluted with a LiCl-containing medium so as to have a concentration of 100 ng/mL, to prepare a Wnt-3a solution. To each well of the HEK 293 cells cultured overnight in the LiCl-containing medium, 10 μL each of the solution of the compound to be tested was added, followed by culturing in the 5% CO2 incubator for 2 hours (the final concentration of the compound to be tested: 3-0.03 μM). Thereafter, 10 μL each of the Wnt-3a solution was added to the respective wells, followed by further culturing for 5 hours.
Using ONE-Glo™ Luciferase Assay System (Promega Corporation, No. E6110), the luciferase activity of the cells in the wells was measured by a microplate reader (Synergy H1, BioTek Instruments, Inc.) An IC50 value was calculated from the luminescence intensity of each compound concentration, supposing that the luminescence intensity of a group with no addition of the compound and with Wnt-3a stimulation was 100%, and that the luminescence intensity of a group with no addition of the compound and with no Wnt-3a stimulation was 0%.
On the technique in general: Reporter assays use an easily measured gene product as a stand-in for the process of interest.
Consider `O[C@H]1CC[C@@H](Oc2cccc3cnc(Nc4ccc5[nH]c(CN6CCCC6)nc5c4)nc23)CC1` [Example 13, cis-4-[(2-{[2-(pyrrolidin-1-ylmethyl)-1H-benzo[d]imidazol-5-yl]amino}quinazolin-8-yl)oxy]cyclohexanol], for which the IC50 was below 300 nM. For the compound `OCc1nc2cc(Nc3ncc4cccc(O[C@H]5CC[C@@H](O)CC5)c4n3)ccc2[nH]1` [Example 14, cis-4-[(2-{[2-(hydroxymethyl)-1H-benzo[d]imidazol-5-yl]amino}quinazolin-8-yl)oxy]cyclohexanol], the IC50 was in the range of 300 to 1000 nM. For the compound `Cc1ccc2cnc(Nc3ccc4nc[nH]c4c3)nc2c1O[C@H]1CC[C@@H](O)CC1` [Example 17, cis-4-({2-[(1H-benzo[d]imidazol-6-yl)amino]-7-methylquinazolin-8-yl}oxy)cyclohexanol], the IC50 lay within 300 to 1000 nM.

In the case of `Cc1nc2ccc(Nc3ncc4ccc(Br)c(O[C@H]5CC[C@@H](O)CC5)c4n3)cc2[nH]1` [Example 18, cis-4-({7-bromo-2-[(2-methyl-1H-benzo[d]imidazol-6-yl)amino]quinazolin-8-yl}oxy)cyclohexanol], the IC50 fell in the range of 300 to 1000 nM. `Cc1nc2c(Br)cc(Nc3ncc4cccc(O[C@H]5CC[C@@H](O)CC5)c4n3)cc2[nH]1` [Example 19, cis-4-({2-[(4-bromo-2-methyl-1H-benzo[d]imidazol-6-yl)amino]quinazolin-8-yl}oxy)cyclohexanol]: the IC50 was 1000 to 3000 nM.

Take `Cc1nc2c(C)cc(Nc3ncc4cccc(O[C@H]5CC[C@@H](O)CC5)c4n3)cc2[nH]1` [Example 20, cis-4-({2-[(2,4-dimethyl-1H-benzo[d]imidazol-6-yl)amino]quinazolin-8-yl}oxy)cyclohexanol]: the IC50 is 300 to 1000 nM. Next, `COCc1nc2ccc(Nc3ncc4cccc(O[C@H]5CC[C@@H](O)CC5)c4n3)cc2[nH]1` [Example 25, cis-4-[(2-{[2-(methoxymethyl)-1H-benzo[d]imidazol-6-yl]amino}quinazolin-8-yl)oxy]cyclohexanol]: 300 to 1000 nM; `O[C@H]1CC[C@@H](Oc2cccc3cnc(Nc4ccc5nc(C(F)(F)F)[nH]c5c4)nc23)CC1` [Example 26, cis-4-((2-{[2-(trifluoromethyl)-1H-benzo[d]imidazol-6-yl]amino}quinazolin-8-yl)oxy)cyclohexanol]: 1000 to 3000 nM. As for `C[C@H](O)c1nc2ccc(Nc3ncc4cccc(O[C@H]5CC[C@@H](O)CC5)c4n3)cc2[nH]1` [Example 27, cis-4-{[2-({2-[(S)-1-hydroxyethyl]-1H-benzo[d]imidazol-6-yl}amino)quinazolin-8-yl]oxy}cyclohexanol], the IC50 was in the range of 300 to 1000 nM. Turning to `OCc1cc(Nc2ncc3cccc(O[C@H]4CC[C@@H](O)CC4)c3n2)cc2[nH]cnc12` [Example 29, cis-4-[(2-{[4-(hydroxymethyl)-1H-benzo[d]imidazol-6-yl]amino}quinazolin-8-yl)oxy]cyclohexanol], the IC50 is below 300 nM. Take `Cc1cc2nc[nH]c2cc1Nc1ncc2cccc(O[C@H]3CC[C@@H](O)CC3)c2n1` [Example 30, cis-4-({2-[(5-methyl-1H-benzo[d]imidazol-6-yl)amino]quinazolin-8-yl}oxy)cyclohexanol]: the IC50 is 300 to 1000 nM.

As for `O[C@H]1CC[C@@H](Oc2c(Br)ccc3cnc(Nc4ccc5nc[nH]c5c4)nc23)CC1` [Example 31], the IC50 is below 300 nM. For `O[C@H]1CC[C@@H](Oc2cc(F)cc3cnc(Nc4ccc5nc[nH]c5c4)nc23)CC1` [Example 32, cis-4-({2-[(1H-benzo[d]imidazol-6-yl)amino]-6-fluoroquinazolin-8-yl}oxy)cyclohexanol] the value was 300 to 1000 nM; for `O[C@H]1CC[C@@H](Oc2cccc3cnc(Nc4ccc5ncccc5c4)nc23)CC1` [Example 35, cis-4-{[2-(quinolin-6-ylamino)quinazolin-8-yl]oxy}cyclohexanol], 300 to 1000 nM; for `O[C@H]1CC[C@@H](Oc2cccc3cnc(Nc4ccc5scnc5c4)nc23)CC1` [Example 36, cis-4-{[2-(benzo[d]thiazol-5-ylamino)quinazolin-8-yl]oxy}cyclohexanol], below 300 nM.

For `O[C@H]1CC[C@@H](Oc2cccc3cnc(Nc4ccnc5ccccc45)nc23)CC1` [Example 37, cis-4-{[2-(quinolin-4-ylamino)quinazolin-8-yl]oxy}cyclohexanol], the IC50 was below 300 nM. For `Cc1ccc2cc(Nc3ncc4cccc(O[C@H]5CC[C@@H](O)CC5)c4n3)ccc2n1` [Example 38, cis-4-({2-[(2-methylquinolin-6-yl)amino]quinazolin-8-yl}oxy)cyclohexanol] the value was 300 to 1000 nM; for `O[C@H]1CC[C@@H](Oc2cccc3cnc(Nc4ccc5cnccc5c4)nc23)CC1` [Example 39, cis-4-{[2-(isoquinolin-6-ylamino)quinazolin-8-yl]oxy}cyclohexanol], 300 to 1000 nM; for `O[C@H]1CC[C@@H](Oc2cccc3cnc(Nc4ccc5ccncc5c4)nc23)CC1` [Example 40, cis-4-{[2-(isoquinolin-7-ylamino)quinazolin-8-yl]oxy}cyclohexanol], 1000 to 3000 nM.

As for `O[C@H]1CC[C@@H](Oc2cccc3cnc(Nc4cccc5cnccc45)nc23)CC1` [Example 41, cis-4-{[2-(isoquinolin-5-ylamino)quinazolin-8-yl]oxy}cyclohexanol], the IC50 is 300 to 1000 nM.

As to `O[C@H]1CC[C@@H](Oc2c(F)ccc3cnc(Nc4ccc5ncsc5c4)nc23)CC1` [Example 42, cis-4-{[2-(benzo[d]thiazol-6-ylamino)-7-fluoroquinazolin-8-yl]oxy}cyclohexanol], the IC50 was below 300 nM. For the compound `O[C@H]1CC[C@@H](Oc2c(F)ccc3cnc(Nc4ccc5ncccc5c4)nc23)CC1` [Example 43, cis-4-{[7-fluoro-2-(quinolin-6-ylamino)quinazolin-8-yl]oxy}cyclohexanol], the IC50 was below 300 nM.

Take `OCc1n[nH]c2cc(Nc3ncc4ccc(F)c(O[C@H]5CC[C@@H](O)CC5)c4n3)ccc12` [Example 44, cis-4-[(7-fluoro-2-{[3-(hydroxymethyl)-1H-indazol-6-yl]amino}quinazolin-8-yl)oxy]cyclohexanol]: the IC50 is below 300 nM. For `O[C@H]1CC[C@@H](Oc2cccc3cnc(Nc4ccnc5cc(F)ccc45)nc23)CC1` [Example 45, cis-4-({2-[(7-fluoroquinolin-4-yl)amino]quinazolin-8-yl}oxy)cyclohexanol] the value was 300 to 1000 nM; for `COc1ccc2c(Nc3ncc4cccc(O[C@H]5CC[C@@H](O)CC5)c4n3)ccnc2c1` [Example 46, cis-4-({2-[(7-methoxyquinolin-4-yl)amino]quinazolin-8-yl}oxy)cyclohexanol], 300 to 1000 nM.
